In patent publication US20180077928A1, “INSECT REPELLENT FIBER AND INSECT REPELLENT SCREEN USING SAME” (priority 2015, published 2018):

What was measured:
[1] = Acceptable Daily Intake (ADI) set by WHO and FAO; acceptable intake used in evaluation criteria; design: species or system human; settings: person/child who weighs 15 kg, calculated from ADI
Protocol: When the amount of the insect repellent 4 (permethrin) exposed to the surface of the insect repellent fiber 1 is less than 0.4 μg per gram of the insect repellent fiber 1, the insect repellent effect cannot be sufficiently exerted. […] The WHO and FAO (Food and Agriculture Organization of the United Nations) have investigated harmful effects of permethrin to a human body on the basis of a large amount of data obtained by animal tests and the like. According to the investigation results, the amount of permethrin that can be ingested by human over a lifetime without an appreciable health risk, or also referred to as ADI (Acceptable Daily Intake), is set to “0.05 mg/day/kg”. For example, for people who weigh 15 kg (weight of around a child), this value per day is calculated to be 0.75 mg. This means that permethrin of such an amount may be continually ingested without an appreciable health risk. […]
The safety was evaluated according to the following evaluation criteria by assuming a situation that a child who weighs 15 kg licked a whole area of a screen door in which the insect repellent screen having an area of 1 m^2 was installed. […] It is noted that when the insert repellent screen was evaluated as “good”, the insect repellent screen was determined to be safe.

[2] = human, over a lifetime without appreciable health risk; WHO and FAO; cited from earlier work

Structure (SMILES) | acceptable intake per day [1] [mg] | ADI (Acceptable Daily Intake) [2] [mg/day/kg]
CCOc1ccc(C(C)(C)COCc2cccc(Oc3ccccc3)c2)cc1 [ethofenprox] | 0.45 | –
CC1(C)C(C=C(Cl)Cl)C1C(=O)OCc1cccc(Oc2ccccc2)c1 (stereo not drawn) [permethrin] | 0.75 | 0.05
